From publication PMC8703873, “Structure and Activity of a Selective Antibiofilm Peptide SK-24 Derived from the NMR Structure of Human Cathelicidin LL-37” (Pharmaceuticals, 2021)
Converted amounts (≈) assume the structure as drawn. Read-outs that look alike come from different tables or passages of the source. No end group written: not given here.

What was measured:
[1] = system: Human red blood cells; experiment: Hemolytic assay; format: cell-based; conditions: 1 h
Procedure: Human red blood cells (hRBCs, the UNMC Blood Bank) were washed three to five times with saline (Fisher Scientific, Waltham, MA, USA) at 800 g for 10 min each time, until the supernatant was clear. The supernatant was discarded, and hRBCs were suspended in saline at a final density of 2%. Ninety microliters of hRBC suspensions were added to each well of 96-well plates containing 10 µL of 10× serially diluted peptides. After incubation at 37 °C for 1 h, the plates were centrifuged at 1500 rpm for 5 min. About 80 µL of the supernatant was carefully pipetted to a new 96-well microplate and read at 545 nm to measure the amount of hemoglobin released. The positive control was 1% Triton X-100, and the negative control was saline. The percentage of hRBC lysis was calculated based on the hemoglobin released.

[2] = HPLC retention time (measure of peptide hydrophobicity); format: physicochemical; conditions: chromatographic, Waters C8 symmetry hydrophobic column, as described in ref 34; used as indicator of peptide hydrophobicity
Source text: In the membrane-bound LL-37 structure determined by 3D NMR spectroscopy, a hydrophobic gap exists (Figure 1A). The location of a hydrophilic S9 on the hydrophobic surface of LL-37 splits the long helix into two hydrophobic domains (gold sticks). The SK-24 peptide we identified here corresponds to the long hydrophobic domain [26]. The amino acid sequence of SK-24, along with LL-37 and its derived antimicrobial peptides, is depicted in Figure 1B. Peptide parameters, including net charge, hydrophobic content, Boman index, GRAVY, hydrophobicity, and hydrophobic moment of each peptide, were calculated using online tools, such as the APD [8] and HeliQuest (Table 1). Except for the shortest RI-10 (net charge +3), LL-37 and its other derived peptides have net charges +5 or +6, above the average net charge (+3.3) of natural antimicrobial peptides registered in the APD [8, 35, 36]. Overall, the hydrophobic percentages (Pho) of these peptides calculated in the APD are proportional to the hydrophobicity and hydrophobic moment calculated by HeliQuest in Table 1. Of note, LL-37 has the highest net charge (+6) and Boman index but the lowest Pho%, GRAVY, and hydrophobic moment.
All peptides were chemically synthesized and purified to >95% (Genemed Synthesis, San Antonio, TX, USA). The quality of each peptide was determined based on mass spectrometry (MS) and high-performance liquid chromatography (HPLC). Peptide stock solutions were freshly made by solubilizing in autoclaved distilled water, and their concentrations were quantitated using UV spectroscopy based on the absorbance difference at 215 and 225 nm as described. Peptide retention time was measured on a Waters C8 symmetry hydrophobic column as described. Other chemicals were purchased from Sigma (St. Louis, MO, USA) unless specified.

[3] = system: E. faecium V284-17; format: cell-based, Enterococcus faecium
[4] = system: A. baumannii B28-16 preformed biofilms; experiment: Disruption of preformed biofilms (XTT); format: cell-based, Acinetobacter baumannii; conditions: for Biofilm disruption: 72 h preformed biofilms, peptide 64 μM, highest concentration tested; for Disruption of 48 h biofilms: biofilms established for 48 h; for Disruption of 48 h biofilms / Reduction of 24 h biofilms: 24 h treatment; for Reduction of 24 h biofilms: biofilms established in 24 h
Procedure: (§1) The antibiofilm activities of peptides against the preformed biofilms of A. baumannii B28-16 and S. aureus USA300 LAC were evaluated as follows. Bacteria in the logarithmic growth phase were adjusted to a cell density of 10^5 colony forming unit (CFU)/mL. Two hundred microliter cells were seeded into each well of the 96-well plates. The plates were incubated at 37 °C to allow for the formation of biofilm for 24, 48, and 72 h, respectively. The planktonic cells were then removed, followed by a wash. The biofilms were then treated with 20 µL of 10× two-fold diluted peptides and 180 µL of fresh TSB media for 24 h at 37 °C. Cultures treated with water without peptide served as the positive control, and media treated with water was used as the negative control. To quantify the antibiofilm activity of the peptides, the XTT [2, 3-bis (2-methyloxy-4-nitro-5-sulfophenyl)-2H-tertazolium-5-carboxanilide] assay staining method was used to quantitate the live cells. Absorbance was read at 450 nm using a ChroMate microliter plate reader. The percentage biofilm growth for the peptide was plotted by assuming 100% biofilm growth in untreated bacterial control wells. Data were represented as mean ± standard deviation (SD). The data are statistically significant at p < 0.05. Plots were generated using GraphPad Prism v7 (GraphPad Software, San Diego, CA, USA).

[5] = system: S. aureus USA300 LAC preformed biofilms; conditions: S. aureus USA300 LAC and other clinical strains (USA200, USA400, Mu50); cited from earlier work
Procedure: Here, we compared the antibiofilm activity of SK-24 with that of GF-17, GI-20, and 17BIPHE2 against the 24 h preformed biofilms of S. aureus USA300. […] Only SK-24 a ...

[6] = system: S. aureus USA300 LAC; experiment: Membrane depolarization (DiBAC4(3)); format: cell-based, Staphylococcus aureus; conditions: DiBAC4(3) fluorescence; for Membrane depolarization ability (order, words): peptide 8 µM, similar trends at 16 and 32 µM
Procedure: The experiment was conducted as described. In brief, an overnight culture of S. aureus USA300 LAC was subcultured in a fresh TSB medium and grown to the exponential phase. Cells were spun using centrifugation and washed twice with PBS, and resuspended in twice the volume of PBS containing 25 mM glucose and incubated at 37 °C for 15 min. For membrane depolarization measurements, 500 nM (final concentration) of the dye DiBAC4 (3) (bis-(1,3- dibutylbarbituric acid) trimethine oxonol) (AnaSpec, San Jose, CA, USA) was added and vortexed gently. Aliquots of 90 μL of the energized bacteria solution were loaded to the wells, and the plate was fed into a FLUOstar Omega microplate reader. Fluorescence was read for 20 min at excitation and emission wavelengths of 485 and 520 nm, respectively, to get dye normalization. Then 10 μL of diluted peptide solutions were added and gently mixed. Fluorescence readings were recorded for 40 min, where Triton X-100 (0.1%) was used as a positive control.

[7] = system: S. aureus USA300; format: cell-based, Staphylococcus aureus
Procedure: (§2) The antibiotic-resistant pathogens used in this study include the Gram-positive bacteria Enterococcus faecium V286-17 and Staphylococcus aureus USA300 LAC and the Gram-negative bacteria Klebsiella pneumoniae E406-17, Acinetobacter baumannii B28-16, Pseudomonas aeruginosa E411-17, and Escherichia coli E423-17. All bacteria were cultivated in tryptic soy broth (TSB) at 37 °C, 220 rpm.
(§3) The antibacterial activity of peptides was evaluated using a standard broth microdilution protocol with minor modifications. In brief, peptides were made at various concentrations, 10 μL per well in a 96-well polystyrene microplate. Logarithmic phase bacterial cultures (i.e., optical density (OD) at 600 nm ≈ 0.5) were diluted to 0.001 OD, and aliquots of 90 μL were added to each well. Untreated bacterial culture and medium were included as positive and negative controls, respectively. Plates were incubated at 37 °C overnight and read at 630 nm using a ChroMate Microplate Reader (Awareness Technology, Palm City, FL, USA). […] Our previously designed peptide 17BIPHE2 [32] was included as a positive control, and RI-10, a peptide without antibacterial activity in rich media, was utilized as a negative control.

[8] = system: A. baumannii B28-16; format: cell-based, Acinetobacter baumannii
Procedure: as §2, §3

[9] = system: S. aureus USA300 LAC preformed biofilms; experiment: Disruption of preformed biofilms (XTT); format: cell-based, Staphylococcus aureus; conditions: for Antibiofilm effect on 24 h preformed biofilms: 24 h preformed biofilms of S. aureus USA300, XTT
Procedure: as §1

[10] = system: P. aeruginosa E411-17; format: cell-based, Pseudomonas aeruginosa; conditions: for MIC: E411-17
Procedure: as §2, §3

[11] = system: K. pneumoniae E406-17; format: cell-based, Klebsiella pneumoniae; conditions: for MIC: E406-17
Procedure: as §2, §3

[12] = system: E. coli E423-17; format: cell-based, Escherichia coli
Procedure: as §2, §3

[13] = system: S. aureus USA300 LAC; experiment: Membrane permeabilization (propidium iodide); format: cell-based, Staphylococcus aureus; conditions: peptide 8 µM; propidium iodide fluorescence, 2 h, PBS, 37 °C
Procedure: Membrane permeabilization was evaluated as described. In brief, bacteria were inoculated and grown overnight. A second inoculation was made and let bacteria grow to the exponential phase. Bacteria were then spun, washed, and resuspended in the same volume of PBS. A series of peptide solutions (10×) was made via two-fold dilution in a 96-well plate (10 µL each). All wells were aliquoted with 2 µL of propidium iodide (20 µM), followed by adding 88 µL of S. aureus USA300 or A. baumannii B28-16 (OD600 ~0.11 in PBS). The plate was incubated at 37 °C with continuous shaking at 100 rpm in a FLUOstar Omega microplate reader (BMG Labtech Inc., Cary, NC, USA). Fluorescence was recorded every 5 min for 2 h with excitation and emission wavelengths of 485 and 620 nm. The data were analyzed by the vendor’s software using averaged values from duplicated experiments.

[14] = 2% hRBCs in saline, 37 °C, tested 12.5–200 µM

| Compound | tHPLC (HPLC retention time) [2] | Disruption of 24 h preformed biofilms (words, found previously) [5] | Membrane depolarization ability (order, words) [6] | HC50 (50% hemolytic concentration) ([1]; red cells of human) | Antibiofilm effect on 24 h preformed biofilms [9] | Biofilm disruption [4] | Disruption of 48 h biofilms [4] | Reduction of 24 h biofilms [4] | MIC [10] | MIC [11] | MIC [12] | other results |
| --- | --- | --- | --- | --- | --- | --- | --- | --- | --- | --- | --- | --- |
| CC[C@H](C)[C@H](NC(=O)[C@H](CCCCN)NC(=O)[C@H](CCC(=O)O)NC(=O)[C@H](CCCCN)NC(=O)[C@H](CO)NC(=O)[C@H](CCCCN)NC(=O)[C@H](CCCNC(=N)N)NC(=O)[C@H](Cc1ccccc1)NC(=O)[C@H](Cc1ccccc1)NC(=O)[C@H](CC(=O)O)NC(=O)CNC(=O)[C@H](CC(C)C)NC(=O)[C@@H](N)CC(C)C)C(=O)NCC(=O)N[C@@H](CCCCN)C(=O)N[C@@H](CCC(=O)O)C(=O)N[C@@H](Cc1ccccc1)C(=O)N[C@@H](CCCCN)C(=O)N[C@@H](CCCNC(=N)N)C(=O)N[C@H](C(=O)N[C@H](C(=O)N[C@@H](CCC(N)=O)C(=O)N[C@@H](CCCNC(=N)N)C(=O)N[C@H](C(=O)N[C@@H](CCCCN)C(=O)N[C@@H](CC(=O)O)C(=O)N[C@@H](Cc1ccccc1)C(=O)N[C@@H](CC(C)C)C(=O)N[C@@H](CCCNC(=N)N)C(=O)N[C@@H](CC(N)=O)C(=O)N[C@@H](CC(C)C)C(=O)N[C@H](C(=O)N1CCC[C@H]1C(=O)N[C@@H](CCCNC(=N)N)C(=O)N[C@H](C(=O)N[C@@H](CCC(=O)O)C(=O)N[C@@H](CO)C(=O)O)[C@@H](C)O)C(C)C)[C@@H](C)CC)C(C)C)[C@@H](C)CC [LL-37] | 12.548 min | neither LL-37 nor RI-10 was able to disrupt | GI-20 > 17BIPHE2 > GF-17~SK-24 > LL-37 | – | – | – | – | – | – | – | – | HC50 (50% hemolytic concentration) [1, 14]: ~ 175 µM; Hemolytic activity [1, 14]: no hemolysis below 100 µM; Hemolysis ([1]; peptide 200 µM, 2% hRBCs in saline, 37 °C, read at 545 nm): 70%; MIC ([3]; E. faecium V284-17, 100% TSB, 37 °C overnight, read at 630 nm): 32 µM (≈ 144 µg/mL); Disruption of preformed biofilms ([4]; biofilms formed for 24, 48 and 72 h, peptide at 8, 16, 32 or 64 μM for 24 h): unable to disrupt |
| GFKRIVQRIKDFLRNLV-NH2 (C-terminus assumed) [GF-17] | 12.197 min | highly effective | GI-20 > 17BIPHE2 > GF-17~SK-24 > LL-37 | ~ 175 µM | antibiofilm effect in a dose-dependent manner | 30–50% | dose-dependent biofilm disruption | dose-dependent manner | 16 µM | >32 µM | 16 µM | MIC [7]: 2 to 4 µM; MIC [8]: 4 µM; MIC ([3]; V284-17): 2 µM |
| SKEKIGKEFKRIVQRIKDFLRNLV-NH2 [SK-24] | 12.291 min | – | GI-20 > 17BIPHE2 > GF-17~SK-24 > LL-37 | greater than 200 µM | antibiofilm effect in a dose-dependent manner | ~ 70% | dose-dependent biofilm disruption | dose-dependent manner | >32 µM | ≥32 µM | 16 µM | Membrane permeation [13]: weakly permeated; Staphylococcal biofilm remaining (reduced to) ([9]; 24 h preformed biofilms, peptide 32 μM, relative to untreated control = 100%): ~ 25%; Effect on growth at 32 μM ([10]; P. aeruginosa E411-17, peptide 32 μM): poor effect; Membrane depolarization, dose dependence ([6]; peptide 4, 8, 16 and 32 µM): dose-dependent manner; Effect on growth at 32 μM ([11]; K. pneumoniae E406-17, peptide 32 μM): poor effect |
